Measurements as given in US20250241965A1, “METHOD TO IMPROVE CELL VIABILITY OF CARDIOMYOCYTES” (UNIVERSITY OF WASHINGTON, priority 2022, published 2025).

Experiments:
[1] = tested on: pluripotent stem cells (PSCs) differentiating to cardiomyocytes; test: Cell yield during differentiation of pluripotent stem cells to cardiomyocytes in suspension culture; type: cell-based; conditions: for cell counts (cells/mL) during differentiation, FIG. 4: versus CBP conditions
Protocol: FIG. 1A depicts the timeline, base media, media supplements, small molecules for the differentiation of pluripotent stem cells to cardiomyocytes. Addition of CHIR, Wnt agonist, occurs at Day 3 of differentiation, while the Wnt antagonist Wiki, is added either 48 or 44 hours after CHIR addition. The timing from CHIR to WIKI addition is optimized for each cell line and/or reagent change to most efficiently induce cardiomyocye differentiation.
(§1) FIG. 3 (top) illustrates the current best practice (CBP) differentiation methodology including timeline, base media, media supplements and the addition of small molecules. FIG. 3 (bottom) the experimental set up to test three different methodologies designed to improve the cell yield in comparison to CBP (1). To improve the total cell yield, adding an additional media change on the day just prior to the initiation of significant cell loss (2), or the addition of ROCK inhibitor at the points of small molecule addition (CHIR or WIKI, respectively) were tested. To monitor for the fate of cells in the experiment, the cultures were monitored for cell counts (both in single cell suspension and in aggregates), glucose, lactate, and pH using a Blood Gas Analyzer (BGA); apoptosis was analyzed by AnnexinV staining; additionally, mesoderm formation was monitored by flow cytometry for CD56 and PDGFRa to determine if the addition of ROCK inhibitor changed the developmental trajectory of the cells.
FIG. 4 (top) once again illustrates the experimental design as described in […], for reference. FIG. 4 (bottom) indicates the cell counts at multiple time-points from each condition during the differentiation of experiment #19. 19-1 is CBP conditions, 19-2 is media change at day 6 conditions (including the addition of Wiki 5 uM), 19-3 is conditions that received ROCK inhibitor at the time of small molecule addition. At day 6 of differentiation cells numbers in condition 19-3 were elevated to the point of needing to double the media volume and therefore cells were split into 19-3A and 19-3B.
involves multiple steps of PSC expansion and differentiation to the desired lineage. As presented here PSCs are thawed from a suspension PSC bank (PMID: 26318718) and aggregated in suspension culture, with the addition of the ROCK inhibitor Y-27632, shown to permit survival of dissociated PSCs (PMID: 17529971). Following expansion, the cells are induced to differentiate to mesoderm and then cardiomyocytes by modulating Wnt signaling using CHIR99021 to induce mesoderm (PMID: 23257984), followed small molecule Wnt inhibitor, WIKI4 (PMID: 23227175) to specify mesoderm to the cardiomyocyte lineage (FIG. 3).
loss during the addition of CHIR99021 and WIKI4. […] Additionally, at differentiation day 13, the culture with the addition of Y-27632 yielded nearly 4× more cardiomyocytes than cultures without. Subsequently Y-27632 was added to all cultures during the differentiation (FIG. 4).

[2] = tested on: pluripotent stem cells (PSCs) differentiating to cardiomyocytes; test: Apoptosis by AnnexinV staining (flow cytometry) during cardiomyocyte differentiation; type: cell-based
Text: as §1
FIG. 6 illustrates that apoptosis correlates with the cell loss detected in CBP conditions (19-1) and media change (including Wiki) conditions (19-2), in comparison to ROCK inhibitor conditions (19-3). This illustration also includes an additional experimental set which includes addition of ROCK inhibitor at time-points of small molecule addition (20-1), or CBP conditions (20-2). […]

Structure (SMILES)	cell loss by end of culture, FIG. 1B ([1]; additional WIKI4 on day 6 of differentiation, 8 uM CHIR)	cell counts (cells/mL) during differentiation, FIG. 4 ([1]; condition 19-2: media change at day 6 including addition of Wiki 5 uM)	cells/mL in the final culture, FIG. 1B ([1]; media change with no additional WIKI4 on day 6, Day 20 of differentiation)	AnnexinV staining (apoptosis), FIG. 6 ([2]; condition 19-2: media change at day 6 including Wiki)	yield of pre-cardiomyocytes ([1]; Y-27632 added in combination with CHIR99021 and WIKI4, measured at day 6 of differentiation (4.7E5 cells/mL without)) [cells/mL]	cell counts (cells/mL) during differentiation, FIG. 4 ([1]; condition 19-3: ROCK inhibitor at the time of small molecule (CHIR, WIKI) addition)	cardiomyocyte yield relative to cultures without Y-27632 ([1]; differentiation day 13) [×]	yield of pre-cardiomyocytes relative to culture without Y-27632 ([1]; in combination with CHIR99021 and WIKI4, day 6 of differentiation)	AnnexinV staining (apoptosis), FIG. 6 ([2]; condition 19-3: ROCK inhibitor at time-points of small molecule addition)
COc1ccc(-n2c(SCCCN3C(=O)c4cccc5cccc(c45)C3=O)nnc2-c2ccncc2)cc1 [WIKI4]	extensive loss of cells	even more rapid loss of cells	roughly 8E5 cells/mL	high	–	–	–	–	–
C[C@@H](N)[C@H]1CC[C@H](C(=O)Nc2ccncc2)CC1 [Y-27632]	–	–	–	–	1.1E6	significantly higher cell numbers	~4	greater than double the yield	low
